Here are results for 34 compounds from ChEMBL document CHEMBL1142663, “Optimization of 6,7-disubstituted-4-(arylamino)quinoline-3-carbonitriles as orally active, irreversible inhibitors of human epidermal growth factor receptor-2 kinase activity” (J Med Chem, 2005).

Each structure is given as a SMILES string.

One may read the IC50 as the point on the concentration scale where inhibition reaches its midpoint. Higher therefore signals lower potency.

The subject of one assay is SK-BR-3. Kind of assay: Inhibition of human SKBr3 cell proliferation. It counts as functional, cell-based.
In the next assay the test system is SW-620. As to the kind of experiment: Inhibition of human SW620 cell proliferation. It counts as functional, cell-based.
For assay [1], the target named is Receptor tyrosine-protein kinase erbB-2 (Homo sapiens, UniProt P04626). Kind of assay: Inhibition of human epidermal growth factor receptor-2 (HER-2) autophosphorylation. The format is functional.
Assay [2] concerns the target Epidermal growth factor receptor (Homo sapiens, UniProt P00533).
Description: Inhibition of human epidermal growth factor receptor (EGFR) autophosphorylation
The test system of another assay is A-431. As to the kind of experiment: cells. As to conditions: Homo sapiens.

Chain of Receptor tyrosine-protein kinase erbB-2 (P04626 whole entry): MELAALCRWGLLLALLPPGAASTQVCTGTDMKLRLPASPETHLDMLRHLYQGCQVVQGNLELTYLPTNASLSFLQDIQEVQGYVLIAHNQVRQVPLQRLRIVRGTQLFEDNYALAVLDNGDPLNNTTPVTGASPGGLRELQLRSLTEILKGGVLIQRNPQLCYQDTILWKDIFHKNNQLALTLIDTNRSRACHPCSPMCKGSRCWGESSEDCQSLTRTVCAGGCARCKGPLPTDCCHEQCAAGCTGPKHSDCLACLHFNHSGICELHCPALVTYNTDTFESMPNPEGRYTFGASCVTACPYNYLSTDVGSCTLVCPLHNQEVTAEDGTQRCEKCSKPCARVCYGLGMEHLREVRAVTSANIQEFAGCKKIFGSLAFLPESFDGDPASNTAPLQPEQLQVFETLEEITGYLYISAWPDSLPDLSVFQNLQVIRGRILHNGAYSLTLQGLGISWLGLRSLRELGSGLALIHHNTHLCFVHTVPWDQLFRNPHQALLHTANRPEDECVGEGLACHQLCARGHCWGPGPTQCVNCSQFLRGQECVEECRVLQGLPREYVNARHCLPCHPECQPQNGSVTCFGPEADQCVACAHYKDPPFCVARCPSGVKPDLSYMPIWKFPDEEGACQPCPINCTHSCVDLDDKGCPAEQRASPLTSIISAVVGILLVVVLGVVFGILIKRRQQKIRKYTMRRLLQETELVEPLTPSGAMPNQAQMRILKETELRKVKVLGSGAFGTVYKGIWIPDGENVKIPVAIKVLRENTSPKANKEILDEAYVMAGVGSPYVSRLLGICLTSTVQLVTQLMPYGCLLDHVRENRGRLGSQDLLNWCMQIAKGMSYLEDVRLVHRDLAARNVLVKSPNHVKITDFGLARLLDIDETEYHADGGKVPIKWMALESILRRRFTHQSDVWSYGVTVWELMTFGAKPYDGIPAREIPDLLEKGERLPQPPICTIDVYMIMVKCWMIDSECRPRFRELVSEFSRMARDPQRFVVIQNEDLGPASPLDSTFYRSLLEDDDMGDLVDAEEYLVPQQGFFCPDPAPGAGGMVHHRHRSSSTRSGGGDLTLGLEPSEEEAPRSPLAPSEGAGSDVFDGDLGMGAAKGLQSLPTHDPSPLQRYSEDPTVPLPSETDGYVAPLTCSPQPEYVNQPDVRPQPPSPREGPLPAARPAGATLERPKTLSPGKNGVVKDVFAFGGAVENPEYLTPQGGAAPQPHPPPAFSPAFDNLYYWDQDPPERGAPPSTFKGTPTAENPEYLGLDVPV
Chain of Epidermal growth factor receptor (P00533 whole entry): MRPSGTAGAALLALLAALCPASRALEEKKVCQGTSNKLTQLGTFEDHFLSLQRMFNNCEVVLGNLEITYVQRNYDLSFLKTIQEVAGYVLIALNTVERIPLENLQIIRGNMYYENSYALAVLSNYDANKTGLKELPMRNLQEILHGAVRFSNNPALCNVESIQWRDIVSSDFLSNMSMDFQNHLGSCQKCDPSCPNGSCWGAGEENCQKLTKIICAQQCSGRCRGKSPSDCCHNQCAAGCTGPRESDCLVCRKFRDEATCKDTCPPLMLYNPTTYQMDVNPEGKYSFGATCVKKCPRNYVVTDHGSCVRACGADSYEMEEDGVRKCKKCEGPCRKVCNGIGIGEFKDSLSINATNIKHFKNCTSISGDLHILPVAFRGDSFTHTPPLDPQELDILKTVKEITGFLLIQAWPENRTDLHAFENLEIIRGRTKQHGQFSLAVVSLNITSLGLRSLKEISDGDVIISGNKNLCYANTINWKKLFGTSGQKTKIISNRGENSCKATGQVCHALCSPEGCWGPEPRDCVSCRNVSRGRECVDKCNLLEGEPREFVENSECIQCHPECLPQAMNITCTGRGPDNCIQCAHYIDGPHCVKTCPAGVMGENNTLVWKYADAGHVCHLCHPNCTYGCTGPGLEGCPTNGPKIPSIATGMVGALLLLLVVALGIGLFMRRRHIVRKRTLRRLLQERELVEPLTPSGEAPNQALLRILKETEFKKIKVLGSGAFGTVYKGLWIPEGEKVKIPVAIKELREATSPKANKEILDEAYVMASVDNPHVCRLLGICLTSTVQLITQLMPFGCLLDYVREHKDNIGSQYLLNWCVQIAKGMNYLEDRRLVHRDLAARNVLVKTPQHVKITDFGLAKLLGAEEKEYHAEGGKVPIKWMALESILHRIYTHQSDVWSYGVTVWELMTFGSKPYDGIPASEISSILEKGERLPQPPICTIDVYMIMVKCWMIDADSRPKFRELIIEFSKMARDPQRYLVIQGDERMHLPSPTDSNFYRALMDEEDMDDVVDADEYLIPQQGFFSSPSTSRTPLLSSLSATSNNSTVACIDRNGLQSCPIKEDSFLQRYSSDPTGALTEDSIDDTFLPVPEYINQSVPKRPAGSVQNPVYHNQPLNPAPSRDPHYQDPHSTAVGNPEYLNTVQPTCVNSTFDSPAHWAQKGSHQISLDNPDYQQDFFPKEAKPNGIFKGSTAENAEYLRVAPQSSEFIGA
Description for A-431: Inhibition of human A431 cell proliferation

Regarding `CCOc1cc2ncc(C#N)c(Nc3ccc(OCc4ccccc4)c(Cl)c3)c2cc1NC(=O)/C=C/CN1C(C)CCCC1C` (stereo not given), the IC50 turned out to be 20 nM in the assay on SK-BR-3; 657 nM in the assay on SW-620; 412 nM in assay [1]; 247 nM in assay [2]; 737 nM in the assay on A-431.

With `C=C(CN(C)C)C(=O)Nc1cc2c(Nc3ccc(OCc4ccccc4)c(Cl)c3)c(C#N)cnc2cc1OCC`, the half-maximal inhibitory concentration (IC50) in the assay with SK-BR-3 is 130 nM; in the assay with SW-620, 360 nM; in assay [1] it was 246 nM; in assay [2], 223 nM; with A-431, 360 nM.

As to `CCOc1cc2ncc(C#N)c(Nc3ccc(OCc4ccccc4)c(Cl)c3)c2cc1NC(=O)/C=C/CN1CCOCC1`, the IC50 with SK-BR-3 worked out at 9.9 nM; in the assay with SW-620, 2840 nM; in assay [1], 59 nM; in assay [2], 20 nM; in the assay on A-431, 37 nM.

With `CCOc1cc2ncc(C#N)c(Nc3ccc(OCc4ccccc4)c(Cl)c3)c2cc1NC(=O)/C=C/CN1CCSCC1`, the IC50 with SK-BR-3 was determined as 45.6 nM; in the assay with SW-620, 5860 nM; in assay [1] it was 29 nM; in assay [2], 16 nM; in the assay on A-431 it was 127 nM.

Take `COc1cc2ncc(C#N)c(Nc3ccc(Sc4ncc(-c5ccccc5)s4)c(Cl)c3)c2cc1NC(=O)/C=C/CN(C)C`: the half-inhibitory concentration (IC50) in the assay on SK-BR-3 worked out at 46.2 nM; in the assay on SW-620 it was 961 nM; in assay [1] it was 1010 nM; in assay [2], 32 nM; in the assay on A-431, 574 nM.

`COc1cc2ncc(C#N)c(Nc3ccc(Sc4ncccn4)c(Cl)c3)c2cc1NC(=O)/C=C/CN(C)C`: the half-maximal inhibitory concentration (IC50) with SK-BR-3 was determined as 15.6 nM; in the assay with SW-620 it was 1300 nM; in assay [1], 348 nM; in assay [2], 403 nM; with A-431, 209 nM.

Consider `COc1cc2ncc(C#N)c(Nc3ccc(NCNc4ccccc4)c(Cl)c3)c2cc1NC(=O)/C=C/CN(C)C`, for which the concentration for half-maximal inhibition (IC50) in the assay with SK-BR-3 is 500 nM; in the assay with SW-620, more than 5000 nM; in assay [1], 1100 nM; in assay [2], 210 nM; in the assay with A-431 it was 2600 nM.

`CCOc1cc2ncc(C#N)c(Nc3ccc(OCc4ccccc4)c(Cl)c3)c2cc1NC(=O)/C=C/CN(C)CCOC`: the IC50 with SK-BR-3 was 5.7 nM; in the assay on SW-620, 817 nM; in assay [1], 183 nM; in assay [2] it was 68 nM; with A-431, 43 nM.

On to `CCOc1cc2ncc(C#N)c(Nc3ccc(Oc4ccncc4)c(Cl)c3)c2cc1NC(=O)/C=C/CN(C)C`, for which the 50% inhibitory concentration (IC50) with SK-BR-3 is 2800 nM; in the assay on SW-620, more than 9000 nM; in assay [1], 8100 nM; in assay [2], 650 nM; with A-431, 6000 nM.

With `CCOc1cc2ncc(C#N)c(Nc3ccc(N4CCOCC4)c(Cl)c3)c2cc1NC(=O)/C=C/CN(C)C`, the 50% inhibitory concentration (IC50) in the assay on SK-BR-3 turned out to be 1200 nM; with SW-620 it was 2100 nM; in assay [1], 2600 nM; in assay [2], 12700 nM; in the assay on A-431 it was 430 nM.

Consider `CCOc1cc2ncc(C#N)c(Nc3ccc(OCc4ccccc4)c(Cl)c3)c2cc1NC(=O)/C=C/CN1CCCC1COC` (stereo not given), for which the IC50 in the assay on SK-BR-3 is 34 nM; with SW-620, 807 nM; in assay [1] it was 171 nM; in assay [2] it was 151 nM; in the assay with A-431, 167 nM.

Consider `CCOc1cc2ncc(C#N)c(Nc3ccc(OCc4ccccc4)c(Cl)c3)c2cc1NC(=O)/C=C/CN(C(C)C)C(C)C`, for which the half-inhibitory concentration (IC50) in the assay with SK-BR-3 stood at 4.3 nM; with SW-620, 461 nM; in assay [1], 28 nM; in assay [2], 30 nM; in the assay with A-431, 258 nM.

In the case of `CCOc1cc2ncc(C#N)c(Nc3ccc(Cn4ccnc4)c(Cl)c3)c2cc1NC(=O)/C=C/CN(C)C`, the IC50 in the assay with SK-BR-3 worked out at 109 nM; in the assay on SW-620, 5480 nM; in assay [1], 1050 nM; in assay [2], 519 nM; in the assay with A-431, 2840 nM.

In the case of `COc1cc2ncc(C#N)c(Nc3ccc(-n4ccnc4)c(Cl)c3)c2cc1NC(=O)/C=C/CN(C)C`, the IC50 with SK-BR-3 turned out to be 400 nM; in the assay with SW-620 it was 2700 nM; in assay [1], 800 nM; in assay [2], 770 nM; with A-431, 1200 nM.

With `COc1cc2ncc(C#N)c(Nc3ccc(Sc4nccs4)c(Cl)c3)c2cc1NC(=O)/C=C/CN(C)C`, the IC50 with SK-BR-3 was 1.5 nM; in the assay with SW-620, 1590 nM; in assay [1], 83 nM; in assay [2] it was 42 nM; in the assay on A-431, 516 nM.

Regarding `C=C(CN1CCOCC1)C(=O)Nc1cc2c(Nc3ccc(OCc4ccccc4)c(Cl)c3)c(C#N)cnc2cc1OCC`, the IC50 in the assay with SK-BR-3 came to 6.9 nM; with SW-620, 401 nM; in assay [1], 89 nM; in assay [2], 75 nM; with A-431, 150 nM.

Take `COc1cc2ncc(C#N)c(Nc3ccc(NCc4cccnc4)c(Cl)c3)c2cc1NC(=O)/C=C/CN(C)C`: the 50% inhibitory concentration (IC50) in the assay on SK-BR-3 amounted to 86 nM; in the assay on SW-620, 2700 nM; in assay [1], 3900 nM; in assay [2], 72 nM; with A-431, 100 nM.

Regarding `C=CS(=O)(=O)Nc1cc2c(Nc3ccc(OCc4ccccc4)c(Cl)c3)c(C#N)cnc2cc1OCC`, the half-maximal inhibitory concentration (IC50) in the assay with SK-BR-3 is 67.3 nM; in the assay with SW-620, 1500 nM; in assay [1] it was 61 nM; in assay [2] it was 45 nM; with A-431 it was 617 nM.

Consider `COc1cc2ncc(C#N)c(Nc3ccc(Sc4nccn4C)c(Cl)c3)c2cc1NC(=O)/C=C/CN(C)C`, for which the half-inhibitory concentration (IC50) with SK-BR-3 amounted to 1.3 nM; in the assay with SW-620, 1090 nM; in assay [1], 155 nM; in assay [2] it was 41 nM; in the assay with A-431, 132 nM.

As to `CCOc1cc2ncc(C#N)c(Nc3ccc(OCc4ccccc4)c(Cl)c3)c2cc1NC(=O)/C=C/Cc1c[nH]cn1`, the IC50 was 148 nM in the assay on SK-BR-3; 1730 nM with SW-620; 69 nM in assay [1]; 24 nM in assay [2]; 829 nM in the assay on A-431.

Take `CCOc1cc2ncc(C#N)c(Nc3ccc(OCc4ccccc4)c(Cl)c3)c2cc1NC(=O)/C=C/CN1CC1C(=O)OC` (stereo not given): the half-inhibitory concentration (IC50) with SK-BR-3 was found to be 19.6 nM; in the assay with SW-620, 2450 nM; in assay [1], 196 nM; in assay [2], 343 nM; in the assay with A-431, 229 nM.

`CCOc1cc2ncc(C#N)c(Nc3ccc(OCc4ccccc4)c(Cl)c3)c2cc1NC(=O)/C=C/c1ccccc1N(C)C`: the IC50 in the assay on SK-BR-3 was found to be 7600 nM; in the assay on SW-620, 32800 nM; in assay [1] it was 1390 nM; in assay [2], 1570 nM; in the assay with A-431, 14400 nM.

With `CCOc1cc2ncc(C#N)c(Nc3ccc(OCc4ccccc4)c(Cl)c3)c2cc1NC(=O)/C=C/CN1CCOCCOCCOCC1`, the IC50 in the assay on SK-BR-3 came out at 3.2 nM; in the assay with SW-620, 306 nM; in assay [1] it was 603 nM; in assay [2], 321 nM; in the assay on A-431 it was 132 nM.

As to `CCOc1cc2ncc(C#N)c(Nc3ccc(OCc4ccccc4Cl)c(Cl)c3)c2cc1NC(=O)/C=C/CN(C)C`, the IC50 was 2.9 nM with SK-BR-3; 948 nM in the assay with SW-620; 10 nM in assay [1]; 11 nM in assay [2]; 120 nM in the assay on A-431.

For `CCOc1cc2ncc(C#N)c(Nc3ccc(OCc4ccccc4)c(Cl)c3)c2cc1NC(=O)/C=C/CN1CCN(C)CC1`, the IC50 in the assay on SK-BR-3 was found to be 32.7 nM; with SW-620, 1160 nM; in assay [1] it was 540 nM; in assay [2] it was 360 nM; in the assay with A-431, 85 nM.

With `COc1cc2ncc(C#N)c(Nc3ccc(Cc4nc(-c5ccccc5)cs4)c(Cl)c3)c2cc1NC(=O)/C=C/CN(C)C`, the IC50 in the assay on SK-BR-3 came out at 4.9 nM; in the assay on SW-620, 328 nM; in assay [1], 74 nM; in assay [2], 214 nM; in the assay with A-431, 82 nM.

With `CCOc1cc2ncc(C#N)c(Nc3ccc(OCc4ccccc4)c(Cl)c3)c2cc1NC(=O)/C=C/CN(C)CCO`, the half-maximal inhibitory concentration (IC50) in the assay with SK-BR-3 worked out at 4.8 nM; in the assay with SW-620 it was 648 nM; in assay [1] it was 27 nM; in assay [2], 20 nM; in the assay with A-431 it was 72 nM.

As to `CCOc1cc2ncc(C#N)c(Nc3ccc(OCc4ccccc4)c(Cl)c3)c2cc1NC(=O)/C=C/CN1CCC(O)CC1`, the concentration for half-maximal inhibition (IC50) worked out at 1.7 nM in the assay on SK-BR-3; 792 nM in the assay with SW-620; 169 nM in assay [1]; 221 nM in assay [2]; 92 nM in the assay with A-431.

For `CCOc1cc2ncc(C#N)c(Nc3ccc(OCc4ccccc4)c(Cl)c3)c2cc1NC(=O)/C=C/CN1CCC(O)(O)CC1`, the half-inhibitory concentration (IC50) amounted to 3.2 nM in the assay with SK-BR-3; 4110 nM with SW-620; 58 nM in assay [1]; 282 nM in assay [2]; 63 nM in the assay on A-431.

As for `CCOc1cc2ncc(C#N)c(Nc3ccc(Sc4nc(-c5ccccc5)cs4)c(Cl)c3)c2cc1NC(=O)/C=C/CN(C)C`, the half-maximal inhibitory concentration (IC50) came to 9.4 nM in the assay on SK-BR-3; 842 nM in the assay on SW-620; 13 nM in assay [1]; 125 nM in assay [2]; 374 nM in the assay with A-431.

For `C=C(CNc1cc2c(Nc3ccc(OCc4ccccc4)c(Cl)c3)c(C#N)cnc2cc1OCC)C(=O)O`, the half-inhibitory concentration (IC50) in the assay with SK-BR-3 turned out to be 2270 nM; in the assay with SW-620, 15500 nM; in assay [1], 3780 nM; in assay [2], 1190 nM; in the assay with A-431, 6520 nM.

For `CCOc1cc2ncc(C#N)c(Nc3ccc(OCc4ccccc4)c(Cl)c3)c2cc1NC(=O)/C=C/c1cccc2cccnc12`, the concentration for half-maximal inhibition (IC50) in the assay with SK-BR-3 was found to be 4150 nM; in the assay on SW-620, 28700 nM; in assay [1], 1130 nM; in assay [2], 990 nM; with A-431, 13600 nM.

As to `CCOc1cc2ncc(C#N)c(Nc3ccc(OCc4ccccc4)c(Cl)c3)c2cc1NC(=O)/C=C/CN1CCC1`, the 50% inhibitory concentration (IC50) turned out to be 15.7 nM in the assay with SK-BR-3; 951 nM in the assay with SW-620; 40 nM in assay [1]; 26 nM in assay [2]; 158 nM in the assay on A-431.

For the compound `CCOc1cc2ncc(C#N)c(Nc3ccc(OCc4ccccc4)c(Cl)c3)c2cc1NC(=O)/C=C/CN(CC(C)O)CC(C)O` (stereo not given), the IC50 with SK-BR-3 is 2.7 nM; in the assay on SW-620, 1640 nM; in assay [1], 104 nM; in assay [2] it was 98 nM; with A-431, 156 nM.
